The values that follow come from patent US9402842B2, “Synthesis and use of dual tyrosyl-DNA phosphodiesterase I (Tdp1)—topoisomerase I (Top1) inhibitors” (Purdue Research Foundation, priority 2012, dated 2016).

One data set concerns UACC-62. The experiment in a line: NCI screen cytotoxicity, melanoma UACC-62. The conditions noted are these: read-out: Cytotoxicity (GI50 in μM) melanoma UACC-62; 50% growth inhibition.
Another data set concerns OVCAR-3. Put plainly: NCI screen cytotoxicity, ovarian OVCAR-3. The note with it: read-out: Cytotoxicity (GI50 in μM) ovarian OVCAR-3; 50% growth inhibition.
The test system of the next data set is DU-145. Put plainly: NCI screen cytotoxicity, prostate DU-145. The note with it: read-out: Cytotoxicity (GI50 in μM) prostate DU-145; 50% growth inhibition.
The next data set relates to HOP-62. Put plainly: NCI screen cytotoxicity, lung HOP-62. The note with it: read-out: Cytotoxicity (GI50 in μM) lung HOP-62; 50% growth inhibition.
The next data set addresses recombinant human Tdp1 (Homo sapiens (Human), UniProt Q9NUW8). Put plainly: Gel-based assay measuring the inhibition of recombinant Tdp1. The note with it: for IC50: read-out: Tdp1 (semiquantitative IC50 scale). Type of data set: biochemical.
Another data set concerns HCT-116. Put plainly: NCI screen cytotoxicity, colon HCT-116. The note with it: read-out: Cytotoxicity (GI50 in μM) colon HCT-116; 50% growth inhibition.
The target in another data set is human recombinant Top1 (Homo sapiens (Human), UniProt P11387). The experiment in a line: Topoisomerase I-mediated DNA cleavage reactions. Also on record: Top1 inhibition (text of part A): key to the marks not given beside the values. The note with it: for Top1, compound-induced DNA cleavage due to Top1 inhibition: semiquantitative scale relative to 1 μM camptothecin (90) or MJ-III-65 (91).
human recombinant Top1, sequence (P11387 whole entry): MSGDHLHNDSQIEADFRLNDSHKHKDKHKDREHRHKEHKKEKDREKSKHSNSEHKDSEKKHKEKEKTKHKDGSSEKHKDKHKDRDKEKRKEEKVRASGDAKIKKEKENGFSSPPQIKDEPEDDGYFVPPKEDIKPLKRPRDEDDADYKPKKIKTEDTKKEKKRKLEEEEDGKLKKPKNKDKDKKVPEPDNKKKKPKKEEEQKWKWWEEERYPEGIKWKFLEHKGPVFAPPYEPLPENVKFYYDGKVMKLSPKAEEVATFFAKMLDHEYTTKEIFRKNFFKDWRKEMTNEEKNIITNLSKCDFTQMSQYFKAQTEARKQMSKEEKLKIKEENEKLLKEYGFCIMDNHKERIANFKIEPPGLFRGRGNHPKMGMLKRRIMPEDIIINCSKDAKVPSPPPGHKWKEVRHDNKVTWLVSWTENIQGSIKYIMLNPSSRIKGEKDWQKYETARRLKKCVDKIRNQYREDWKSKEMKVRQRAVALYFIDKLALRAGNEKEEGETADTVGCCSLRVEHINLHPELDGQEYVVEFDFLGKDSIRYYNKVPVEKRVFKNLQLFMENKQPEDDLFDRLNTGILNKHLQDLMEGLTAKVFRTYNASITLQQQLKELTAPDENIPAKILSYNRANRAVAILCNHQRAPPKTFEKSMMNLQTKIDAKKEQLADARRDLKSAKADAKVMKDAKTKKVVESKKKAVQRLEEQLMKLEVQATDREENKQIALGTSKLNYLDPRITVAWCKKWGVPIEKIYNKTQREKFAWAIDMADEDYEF

Data set [1] relates to all human cancer cell lines successfully tested. The experiment in a line: NCI screen, mean graph midpoint (MGM) for growth inhibition. The format is cell-based. The note with it: for GI50: read-out: MGM GI50.
In the next data set the test system is SN12C. The experiment in a line: NCI screen cytotoxicity, renal SN12C. The note with it: read-out: Cytotoxicity (GI50 in μM) renal SN12C; 50% growth inhibition.
Another data set has as its system SF-539. The experiment in a line: NCI screen cytotoxicity, CNS SF-539. The note with it: read-out: Cytotoxicity (GI50 in μM) CNS SF-539; 50% growth inhibition.
A further data set concerns MDA-MB-435. Put plainly: NCI screen cytotoxicity, breast MDA-MB-435. The note with it: read-out: Cytotoxicity (GI50 in μM) breast MDA-MB-435; 50% growth inhibition.
For data set [2], the system named is single-stranded DNA substrate. The experiment in a line: Surface plasmon resonance, binding to single-stranded DNA substrate. The note with it: SPR. For orientation: SPR reads the build-up and loss of mass on a sensor chip optically.
Setting [3] is: Homo sapiens, read-out: MGM (μM).
Setting [4] is: mean graph midpoint for growth inhibition of all human cancer cell lines successfully tested, read-out: MGM.

Where a name gives a salt, the structure may show the parent alone. Read-outs that look alike come from different tables or passages of the source.

recombinant human Tdp1, sequence (Q9NUW8 whole entry): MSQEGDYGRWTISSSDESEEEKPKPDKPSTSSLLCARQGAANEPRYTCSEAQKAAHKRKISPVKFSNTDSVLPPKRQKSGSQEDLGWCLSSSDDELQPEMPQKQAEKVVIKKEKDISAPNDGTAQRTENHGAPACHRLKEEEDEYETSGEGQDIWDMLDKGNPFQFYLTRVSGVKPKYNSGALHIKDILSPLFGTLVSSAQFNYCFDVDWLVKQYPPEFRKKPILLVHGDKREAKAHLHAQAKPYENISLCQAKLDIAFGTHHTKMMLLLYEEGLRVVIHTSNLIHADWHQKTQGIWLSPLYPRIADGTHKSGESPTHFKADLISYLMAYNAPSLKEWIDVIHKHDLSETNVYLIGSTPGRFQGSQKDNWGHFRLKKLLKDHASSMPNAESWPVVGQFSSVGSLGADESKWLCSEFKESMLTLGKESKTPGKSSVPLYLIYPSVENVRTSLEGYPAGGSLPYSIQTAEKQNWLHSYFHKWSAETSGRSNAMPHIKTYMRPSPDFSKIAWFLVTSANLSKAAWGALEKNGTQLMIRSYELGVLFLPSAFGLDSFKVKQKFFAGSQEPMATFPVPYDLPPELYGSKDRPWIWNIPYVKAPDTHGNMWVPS
Experimental for human recombinant Top1: Topoisomerase I-Mediated DNA Cleavage Reactions.
DNA cleavage reactions were prepared as previously reported with the exception of the DNA substrate. […] Unincorporated [^32P]dGTP was removed using mini Quick Spin DNA columns (Roche, Indianapolis, Ind.), and the eluate containing the 3′-end-labeled DNA substrate was collected. Approximately 2 nM radiolabeled DNA substrate was incubated with recombinant Top1 in 20 μL of reaction buffer [10 mM Tris-HCl (pH 7.5), 50 mM KCl, 5 mM MgCl2, 0.1 mM EDTA, and 15 μg/mL BSA] at 25° C. for 20 min in the presence of various concentrations of compounds. The reactions were terminated by adding SDS (0.5% final concentration) followed by the addition of two volumes of loading dye (80% formamide, 10 mM sodium hydroxide, 1 mM sodium EDTA, 0.1% xylene cyanol, and 0.1% bromphenol blue). Aliquots of each reaction mixture were subjected to 20% denaturing PAGE. Gels were dried and visualized by using a phosphoimager and ImageQuant software (Molecular Dynamics).
Top1 reactions were performed as recently described. […] The reactions were terminated by adding SDS (0.5% final concentration) followed by the addition of two volumes of loading dye (80% formamide, 10 mM sodium hydroxide, 1 mM sodium EDTA, 0.1% xylene cyanol, and 0.1% bromphenol blue). Reactions were subjected to 20% denaturing PAGE. Gels were dried and visualized by using a Typhoon 8600 and ImageQuant software (Molecular Dynamics).
Experimental for recombinant human Tdp1: Tdp1 inhibitory activity was measured by the drug's ability to inhibit the hydrolysis of the phosphodiester linkage between tyrosine and the 3′-end of the DNA substrate, and to prevent the generation of an oligonucleotide with a free 3′-phosphate (N14P). Therefore, the disappearance of the gel band for N14P indicated Tdp1 inhibition.
Gel-based Assay Measuring the Inhibition of Recombinant Tdp1.
A 5′-[^32P]-labeled single-stranded DNA oligonucleotide containing a 3′-phosphotyrosine (N14Y) was generated as described by Dexheimer et al. The DNA substrate was then incubated with 5 pM recombinant Tdp1 in the absence or presence of inhibitor for 15 min at room temperature in a buffer containing 50 mM Tris HCl, pH 7.5, 80 mM KCl, 2 mM EDTA, 1 mM DTT, 40 μg/ml BSA and 0.01% Tween-20. […] Gel images were scanned using a Typhoon 8600 (GE Healthcare) and densitometric analyses were performed using the ImageQuant software (GE Healthcare).

Turning to `Cl.NCCCn1c2c(c3ccc(NCC(=O)O)cc3c1=O)C(=O)c1ccccc1-2` [Compound 43 of (B), 2-((6-(3-Aminopropyl)-5,11-dioxo-6,11-dihydro-5H-indeno[1,2-c]isoquinolin-3-yl)amino)acetic Acid Hydrochloride], the GI50 (as a rule, the concentration giving 50% growth inhibition) in the data set with UACC-62 came to 0.72 µM; with OVCAR-3, 1.6 µM; in the data set on DU-145, 1.51 µM; in the data set with HOP-62, 0.65 µM; with HCT-116 it was 0.33 µM; in the data set on SN12C, 0.49 µM. The GI50 in the data set with SF-539 turned out to be 1.79 µM; with MDA-MB-435, 1.14 µM. Besides, the IC50 was 1 to 12 µM on recombinant human Tdp1 (determined by duplicate) and 0.87 ± 0.014 µM in data set [1] (setting [3]). Further, the “Top1, compound-induced DNA cleavage due to Top1 inhibition” value (“Top1 … to Top1 inhibition” below) at human recombinant Top1 amounted to 0.
As for `COC(=O)CCCCC(=O)Nc1ccc2c3c(n(CCCN)c(=O)c2c1)-c1ccccc1C3=O` [Compound 26 of (B), Methyl 6-[(6-(3-Aminopropyl)-5,11-dioxo-6,11-dihydro-5H-indeno[1,2-c]isoquinolin-3-yl)amino]-6-oxohexanoate], the IC50 is 37 to 111 µM at recombinant human Tdp1 (determined by duplicate) and 2.34 µM in [1] (setting [3]). The “Top1 … to Top1 inhibition” value on human recombinant Top1 is “(+)”.
Consider `COC(=O)C(=O)Nc1ccc2c3c(n(CCCN)c(=O)c2c1)-c1ccccc1C3=O` [Compound 22 of (B), Methyl 2-[(6-(3-Aminopropyl)-5,11-dioxo-6,11-dihydro-5H-indeno[1,2-c]isoquinolin-3-yl)amino]-2-oxoacetate], for which the “Top1 … to Top1 inhibition” value at human recombinant Top1 turned out to be 0. Moreover, in data set [1] (setting [3]), the IC50 stood at 1.86 ± 0.38 µM.
As for `O=C1c2ccccc2-c2c1c1ccc([N+](=O)[O-])cc1c(=O)n2CCCO` [Compound 63 of (B)], the GI50 with UACC-62 was 0.31 µM; in the data set with OVCAR-3, 0.87 µM; in the data set on DU-145, 0.43 µM; with HCT-116, 0.19 µM; in the data set on SN12C, 0.47 µM; with MDA-MB-435, 1.97 µM. The IC50 in data set [1] (setting [3]) came out at 0.89 ± 0.22 µM.
As for `COc1ccc2c(c1)C(=O)c1c-2n(CCCN)c(=O)c2cc([N+](=O)[O-])ccc12` [Compound 54 of (B)], the GI50 in the data set with UACC-62, in the data set with HOP-62, in the data set on HCT-116 and with SN12C was below 0.01 µM throughout. In data set [1] (setting [3]), the IC50 is 0.02 ± 0.0008 µM.
Consider `NCCCn1c2c(c3ccc(N)cc3c1=O)C(=O)c1ccccc1-2` [Compound 62 of (B)], for which the GI50 with UACC-62 was 0.3 µM; in the data set with OVCAR-3 it was 0.13 µM; in the data set on DU-145, 0.12 µM; in the data set with HOP-62 it was 0.27 µM; in the data set with HCT-116, 0.18 µM; with SN12C it was 0.23 µM. The GI50 in the data set with SF-539 was found to be 0.34 µM; with MDA-MB-435, 0.23 µM. For the same compound, in [1] (setting [3]), the IC50 was 0.16 µM.
“(6-Methyl-5,11-dioxo-6,11-dihydro-5H-indeno[1,2-c]isoquinolin-3-yl)-carbamic Acid [Compound 14 of (B)]”: on human recombinant Top1, the “Top1 … to Top1 inhibition” value is listed as “++”. For the same compound, in data set [2], the “binding to the single-stranded DNA substrate” value is reported as “did not bind”.
Regarding `COC(=O)CCCC(=O)Nc1ccc2c3c(n(CCCN)c(=O)c2c1)-c1ccccc1C3=O` [Compound 25 of (B), Methyl 5-[(6-(3-Aminopropyl)-5,11-dioxo-6,11-dihydro-5H-indeno[1,2-c]isoquinolin-3-yl)amino]-5-oxopentanoate], the IC50 was 37 to 111 µM on recombinant human Tdp1 (determined by duplicate) and 1.09 µM in data set [1] (setting [3]). The “Top1 … to Top1 inhibition” value at human recombinant Top1 is 0.
`CS(=O)(=O)NCCCCCCCCCCCn1c2c(c3ccccc3c1=O)C(=O)c1ccccc1-2` [Compound 89, N-(11-(5,11-Dioxo-5H-indeno[1,2-c]isoquinolin-6(11H)-yl)undecyl)-methanesulfonamide]: at human recombinant Top1, the “Top1 … to Top1 inhibition” value is recorded as “++”. In [1] (Homo sapiens), the GI50 was determined as 0.04 µM.
`COC(=O)CC(=O)Nc1ccc2c3c(n(CCCN)c(=O)c2c1)-c1ccccc1C3=O` [Compound 23 of (B), Methyl 3-[(6-(3-Aminopropyl)-5,11-dioxo-6,11-dihydro-5H-indeno[1,2-c]isoquinolin-3-yl)amino]-3-oxopropanoate]: the IC50 in data set [1] (setting [3]) amounted to 1.86 µM.
`COc1ccc2c(c1)C(=O)c1c-2n(CCCN)c(=O)c2cc(N)ccc12` [Compound 89 of (B), 3-Amino-6-(3-aminopropyl)-5,6-dihydro-9-methoxy-5,11-dioxo-11H-indeno[1,2-c]isoquinoline Dihydrochloride]: the results for the IC50 (on recombinant human Tdp1 (determined by duplicate); in [1] (setting [3])) were 1 to 12 µM and 0.04 µM, respectively.
Consider `CCOC(=O)CNc1ccc2c3c(n(CCCN)c(=O)c2c1)-c1ccccc1C3=O` [Compound 40 of (B), Ethyl 2-[(6-(3-Aminopropyl)-5,11-dioxo-6,11-dihydro-5H-indeno[1,2-c]isoquinolin-3-yl)amino]acetate Hydrochloride], for which the GI50 is 2.25 µM with UACC-62; 3.12 µM with OVCAR-3; 1.68 µM in the data set with DU-145; 0.93 µM with HOP-62; 0.44 µM in the data set with HCT-116; 1.75 µM with SN12C. Moreover, the GI50 with SF-539 was 8.91 µM; with MDA-MB-435, 3.05 µM. Further, in [1] (setting [3]), the IC50 was found to be 1.69 µM.
As for `COc1ccc2c(c1)-c1c(c3ccc([N+](=O)[O-])cc3c(=O)n1CCCN)C2=O.Cl` [Compound 51 of (B), 6-(3-Aminopropyl)-5,6-dihydro-8-methoxy-3-nitro-5,11-dioxo-11H-indeno[1,2-c]isoquinoline Hydrochloride], the GI50 in the data set on OVCAR-3 came out at 0.54 µM; with DU-145 it was 0.18 µM; in the data set on HCT-116, 0.06 µM; in the data set with SN12C it was 0.15 µM; in the data set on SF-539, 0.61 µM; with MDA-MB-435, 0.58 µM. The figures for the IC50 (on recombinant human Tdp1; in data set [1] (setting [3])) were 12 to 37 µM and 0.17 ± 0.017 µM, respectively. The “Top1 … to Top1 inhibition” value on human recombinant Top1 was “++”.
Take “N-(6-(5,11-Dioxo-5H-indeno[1,2-c]isoquinolin-6(11H)hexyl)-methanesulfonamide [Compound 84]”: the “Top1 inhibition (in words)” value on human recombinant Top1 is recorded as “active”. Further, in data set [1] (setting [4]), the IC50 is 0.25 ± 0.004 µM.
As to `COc1ccc2c(c1)-c1c(c3ccc([N+](=O)[O-])cc3c(=O)n1CCCn1ccnc1)C2=O` [Compound 52 of (B), 6-(3-(1H-Imidazol-1-yl)propyl)-8-methoxy-3-nitro-5H-indeno[1,2-c]isoquinoline-5,11(6H)-dione], the GI50 was below 0.01 µM with UACC-62; 0.03 µM in the data set on OVCAR-3; below 0.01 µM with DU-145; below 0.01 µM with HOP-62; below 0.01 µM with HCT-116; below 0.01 µM with SN12C. Moreover, the GI50 in the data set with MDA-MB-435 is 0.03 µM. The “Tdp1 (semiquantitative IC50 scale)” value at recombinant human Tdp1 was “(+)”. For the same compound, the “suppression of Top1-mediated DNA cleavage at high drug concentration” value at human recombinant Top1 (high concentration of 100 μM) is reported as “slight suppression”. In addition, at human recombinant Top1, the “Top1 … to Top1 inhibition” value is “+++”. Moreover, the IC50 in [1] (setting [4]) came out at 0.02 ± 0.0006 µM.
As to `O=C(O)C(F)(F)F.O=C(O)C(F)(F)F.O=C1c2ccccc2-c2c1c1ccccc1c(=O)n2CCCNCCCNCCCn1c2c(c3ccccc3c1=O)C(=O)c1ccccc1-2` [Compound 145, Bis-1,3-{(5,6-dihydro-5,11-diketo-11H-indeno[1,2-c]isoquinoline)-6-propyl-amino}propane Bis(trifluoroacetate)], the “Top1 inhibition (text of part A)” value at human recombinant Top1 (semiquantitative scale relative to 1 μM camptothecin) is on record as “++++”. In addition, the GI50 in data set [1] (mean graph midpoint, NCI cancer cell line screen) worked out at 0.394 µM.
